Key:
Format in all cases: physicochemical
[1] = Degradation of sevoflurane with activated alumina at three moisture levels, gas chromatography; conditions: 50 mg aluminum oxide; 20, 100, 260 ppm water; 60° C., 22 hours; FIG. 1
Description: Type III glass consists mainly of silicon dioxide, calcium oxide, sodium oxide and aluminum oxide. Aluminum oxide is a known Lewis acid The glass matrix is normally inert to sevoflurane. However, under certain conditions (anhydrous, acidic), the glass surface can be attacked or altered, exposing sevoflurane to active Lewis acid sites such as aluminum oxide.
The effect of water on the degradation of sevoflurane was studied by adding various amounts of activated alumina to 20 ml of sevoflurane containing the following three levels of moisture: 1) 20 ppm water—measured water, no additional water added; 2) 100 ppm—spiked; and 3) 260 ppm water—spiked.
It will be appreciated that 20 ppm Water is equivalent to […] w/w Water. The samples were placed at 60° C. and analyzed by gas chromatography after 22 hours.

[2] = Degradation of sevoflurane in ampules by heat with and without added water; conditions: Type I clear ampule autoclaved at 119° C. for three hours
Description: Approximately 20 mL of sevoflurane was added to a 50 mL Type I clear ampule and approximately 20 mL of sevoflurane and 1300 ppm of water was added to a second ampule. Both ampules were flame-sealed and then autoclaved at 119° C. for three hours. The contents of the two ampules were then analyzed by gas chromatography.

[3] = Degradation of sevoflurane in ampules, water-spiked studies (109 ppm to 951 ppm), autoclaved; conditions: ampules in Set A and Set B, autoclaved at 119° C. for three hours
Description: Type I clear glass ampules were used to study the effect of various levels of water in inhibiting the degradation of sevoflurane. Approximately 20 mL of sevoflurane and different levels of water ranging from about 109 ppm to about 951 ppm were added to each ampule. The ampules were then sealed. A total of ten ampules were filled with sevoflurane and varying amounts of water. Five of the ampules were included in Set A and the other five ampules were included in Set B. The ampules were then autoclaved at 119° C. for three hours. Samples in Set A were placed on a mechanical shaker overnight to allow the moisture to coat the glass surface. Samples in Set B were prepared without equilibrating the water with the glass surface. Several control samples were also prepared. Two non-autoclaved ampules (Control Ampule 1 and Control Ampule 2) and a bottle (Control bottle) were each filled with 20 mL of sevoflurane. No water was added to any of the control samples. Also, the controls samples were not shaken overnight. The levels of hexafluoroisopropanol (HFIP) and total degradants (including methyleneglycol bishexafluoroisopropyl ether, dimethyleneglycol bishexafluoroisopropyl ether, methyleneglycol fluoromethyl hexafluoro isopropyl ether) were measured by gas chromatography.

[4] = Degradation of water-spiked sevoflurane in ampules at 60° C. or 40° C.
Description: Type I clear glass ampules were employed to study the effect of various levels of water and temperature in inhibiting the degradation of sevoflurane. Approximately 20 mL of sevoflurane and different levels of water ranging from about 109 ppm to about 951 ppm were added to each ampule. The ampules were then flame-sealed. To accelerate the degradation process, samples from each moisture level were placed at two heating conditions. Samples were placed on 60° C. stability station for 144 hours or placed on a 40° C. stability station for 200 hours. The resulting sevoflurane in each of the samples was analyzed by gas chromatography and pH. Hexafluoroisopropyl alcohol (HFIP) and the total degradants of sevoflurane were measured.

[5] = Sevoflurane degradation in activated Type III amber glass bottles, 20 ppm vs 400 ppm water
Description: The extent of the degradation of sevoflurane in each of the bottles from Example 5 were quantified by gas chromatography. The ten bottles were divided into two groups, the Control Sevo Group (containing bottles 2, 3, 5, 7, 8) and the Study Sevo Group (containing Bottles 1, 4, 6, 9, 10).
All ten bottles were re-rinsed several times with non-degraded sevoflurane containing about 20 ppm of water. For the five Control Sevo Group bottles, 100 mL of sevoflurane containing about 20 ppm of water was added to each bottle. For the five Study Group bottles, 100 mL of sevoflurane containing about 400 ppm of water (spiked) was added to each bottle.
Gas chromatography for all samples was performed at time zero and after heating at 50° C. for 18 hours. Hexafluoroisopropyl alcohol (HFIP), dimethyleneglycol bishexafluoroisopropyl ether (P2) and total degradants were measured.

[6] = Sevoflurane degradation in activated Type III amber glass bottles pre-treated with water-saturated sevoflurane; conditions: activated glass surface treated with water saturated-sevoflurane prior to heating
Description: Sevoflurane was decanted from the five bottles of the Study Sevo Group from Example 6. Each bottle was rinsed thoroughly with fresh sevoflurane. Approximately 125 mL of water-saturated sevoflurane was then put into each bottle. The five bottles were then placed on a mechanical roller for approximately two hours to allow the water to coat the activated glass surfaces. The water-saturated sevoflurane was then drained form each bottle and replaced by 100 mL of sevoflurane containing 400 (spiked) ppm of water. Gas chromatography analysis for all samples was performed after heating at 50° C. for 18 hours, 36 hours, and 178 hours. bishexafluoroisopropyl ether (P2) and total degradants were measured.

In the case of `FCOC(C(F)(F)F)C(F)(F)F` [sevoflurane, fluoromethyl-2,2,2-trifluoro-1-(trifuoromethyl)ethyl ether], the degradation of sevoflurane [1] is reported as “decreases with increasing amounts of water”, the degradation of sevoflurane ([2]; first ampule, no water added, FIG. 2) is reported as “degraded” and the degradation of sevoflurane ([2]; second ampule, 1300 ppm of water, FIG. 3) is reported as “did not degrade”. For the same molecule, the “water sufficient to inhibit the degradation of sevoflurane” value [3] was “at least 595 ppm”, the “water levels that inhibit degradation of sevoflurane” value ([4]; 40° C. for 200 hours) was “higher than 206 ppm” and the “water levels that inhibit degradation of sevoflurane” value ([4]; 60° C. for 144 hours or longer) was “higher than 303 ppm”. The HFIP concentration ([5]; Study Sevo Group (400 ppm water)) was “quite high”, the “amounts of degradants P2 and S1” value ([5]; Study Sevo Group (400 ppm water) compared with Control Group (20 ppm water)) was “much less” and the degradation of sevoflurane ([5]; Study Sevo Group (400 ppm water), 50° C. for 18 hours) was “significantly reduced”. The “degradation of sevoflurane (degradant S1)” value ([5]; addition of 400 ppm of water, activated amber glass bottles, Examples 5 and 6, FIG. 5) was “inhibited”, the “degradation of sevoflurane (degradant P2)” value ([5]; addition of 400 ppm of water, activated type III amber glass bottles, Examples 5 and 6, FIG. 4) was “inhibited” and the degradation of sevoflurane ([5]; zero hour, compared to zero-hour results in Table 4) was “no significant degradation”. The degradation of sevoflurane [6] was “greatly inhibited”.
